According to PubChem BioAssay (NCI):
“And” between values parts separate entries of the source, which are not always exact repeats. Equal entries are not always repeated.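 Dose response: 5 concentrations. Exposure: 48 h. Format: 96-well plates. Endpoint: linear interpolation; highest concentration if not reached. GI50 is the concentration that inhibits growth by half. TGI: concentration producing complete growth inhibition.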

Columns and labels:
Assay in all cases: NCI anticancer screen, dose series, 48 h
OVCAR-3 ovarian = system: OVCAR-3 ovarian
LOX IMVI melanoma = system: LOX IMVI melanoma
HCT-116 colon = system: HCT-116 colon
COLO 205 colon = system: COLO 205 colon
SR leukemia = system: SR leukemia
HOP-62 NSCLC = system: HOP-62 NSCLC
OVCAR-4 ovarian = system: OVCAR-4 ovarian
TK-10 renal = system: TK-10 renal
T-47D breast = system: T-47D breast
MOLT-4 leukemia = system: MOLT-4 leukemia

Structure (SMILES) | GI50 (OVCAR-3 ovarian) | TGI (OVCAR-3 ovarian) | GI50 (LOX IMVI melanoma) | TGI (LOX IMVI melanoma) | GI50 (HCT-116 colon) [nM] | TGI (HCT-116 colon) | GI50 (COLO 205 colon) | TGI (COLO 205 colon) | GI50 (SR leukemia) | TGI (SR leukemia) | GI50 (HOP-62 NSCLC) | TGI (HOP-62 NSCLC) | GI50 (OVCAR-4 ovarian) | TGI (OVCAR-4 ovarian) | GI50 (TK-10 renal) | TGI (TK-10 renal) | GI50 (T-47D breast) [µM] | TGI (T-47D breast) [µM] | GI50 (MOLT-4 leukemia) | TGI (MOLT-4 leukemia)
Cn1c(/C=C(\C#N)c2ccccc2)nc2c(N3CCOCC3)nc(Cl)nc21 | 0.673 µM | 1.88 µM | 324 nM | 1.25 µM | 178 | 0.432 µM | 1340 nM | 2.93 µM | 393 nM | 2.1 µM | 1.58 µM | 3.51 µM | 1.13 µM | 2.5 µM | 1.82 µM | 3.24 µM | 1.23 | 3.75 | 669 nM | 3.12 µM
C=C(CN1C(=O)[C@H]2CCCN2C(=O)c2ccccc21)c1ccc(C(=O)O)cc1 | > 100 µM | > 100 µM | > 100000 nM | > 100 µM | > 100000 | > 100 µM | > 100000 nM | > 100 µM | > 100000 nM | > 100 µM | > 100 µM | > 100 µM | > 100 µM | > 100 µM | > 100 µM | > 100 µM | > 100 | > 100 | > 100000 nM | > 100 µM
O=C1C(=O)c2ccccc2C(O)=C1CC=C(Br)Br | 8.75 µM | 34.7 µM | 1340 nM | 27.6 µM | 887 | > 100 µM | 10300 nM | 24.5 µM | 2570 nM | 55.9 µM | 9.01 µM | > 100 µM | 11.7 µM | 75.9 µM | – | – | 15.4 | 81.2 | 2830 nM | > 100 µM
N#Cc1nc2c(S(=O)(=O)c3ccccc3)c(N)n(Cc3cccnc3)c2nc1C#N | 3.48 µM | > 100 µM | 25800 nM | > 100 µM | 9130 | > 100 µM | > 100000 nM | > 100 µM | 8590 nM | > 100 µM | 17.4 µM | 41.4 µM | > 100 µM | > 100 µM | 26.1 µM | 97 µM | 5.8 | 52.1 | > 100000 nM | > 100 µM
CCn1c(CN2CCN(Cc3ccccc3)CC2)nc2cc(NC(=O)c3cccs3)ccc21 | 20.6 µM | > 100 µM | 19400 nM | 41.7 µM | 14400 | 38.7 µM | 13500 nM | 29.3 µM | 12600 nM | 39.1 µM | 17.7 µM | 38 µM | 16.4 µM | 86.4 µM | 24 µM | 70.4 µM | 6.8 | 33.8 | 13200 nM | 37.9 µM
O=C(CN1CCN(CCCOc2c(-c3ccccc3)oc3ccccc3c2=O)CC1)Nc1ccc(Cl)cc1C(=O)c1ccccc1Cl | 5.79 µM | 19.5 µM | 3870 nM | 14.4 µM | 4440 | 16.6 µM | 13400 nM | 30.2 µM | 3140 nM | 8.17 µM | 10.4 µM | 28.1 µM | 7.48 µM | 54.8 µM | 16.6 µM | 54.1 µM | 6.7 | 33.9 | 3980 nM | 66.7 µM
COc1ncc(-c2ccc3nccc(-c4ccnnc4)c3c2)cc1NS(=O)(=O)c1ccc(F)cc1F | 0.00901 µM and < 0.0109 µM | 0.763 µM and 0.376 µM | 7.58 nM and < 10.6 nM | 1.12 µM and 1.26 µM | 15.5 | 2.31 µM and 1.55 µM | 5.61 nM and < 10 nM | 0.542 µM and 0.257 µM | 16.9 nM and 20.3 nM | 0.499 µM and 0.345 µM | 0.00803 µM and < 0.0122 µM | 1.93 µM and 3.02 µM | 0.033 µM and 0.0217 µM | – | 0.00325 µM and < 0.01 µM | 0.0831 µM and 0.0719 µM | – | 0.00428 | 5.05 nM and < 10 nM | 0.801 µM and 0.579 µM
CC(=O)[C@@]1(O)CC[C@H]2[C@@H]3C[C@H](C)C4=CC(=O)CC[C@]4(C)[C@H]3[C@@H](O)C[C@@]21C | – | > 100 µM | – | > 100 µM | – | > 100 µM | – | > 100 µM | – | > 100 µM | – | > 100 µM | – | > 100 µM | – | > 100 µM | – | > 100 | – | > 100 µM
CC(C)(C)c1nn(-c2ccccc2)c2c1C(=O)CSC(c1ccccc1Cl)N2 (stereo unspecified) | 1.37 µM | 6.37 µM | 2740 nM | 15.7 µM | 1900 | 12 µM | 2510 nM | 6.01 µM | 413 nM | 9.89 µM | 4.47 µM | 21.8 µM | 8.48 µM | 21.9 µM | 11.1 µM | 29.4 µM | 6.1 | 30 | 3420 nM | 16.5 µM
CCC(CO)Nc1nc(NCc2ccccc2O)c2ncn(C(C)C)c2n1 (stereo unspecified) | 3.1 µM | 19.8 µM | 2630 nM | > 100 µM | 2650 | > 100 µM | 1950 nM | 3.89 µM | 1350 nM | 4.1 µM | 5.62 µM | > 100 µM | 5.42 µM | 33.6 µM | 10.2 µM | > 100 µM | 5.07 | 32.8 | 2910 nM | 12.9 µM
COC(=O)c1c2c(c(C)[n+]([O-])c1C)C(=O)C=C(NCc1ccc(F)c(Cl)c1)C2=O | 0.201 µM | 0.628 µM | 25.8 nM | 1.35 µM | 130 | 1.03 µM | 245 nM | 0.863 µM | 381 nM | 6.73 µM | 0.718 µM | 2.33 µM | 0.151 µM | 0.603 µM | 2.22 µM | 5.49 µM | 0.0638 | 1.35 | 404 nM | 2.19 µM
C=CC(=O)N1CCN(c2nc(=O)n(-c3c(C)ccnc3C(C)C)c3nc(-c4c(O)cccc4F)c(F)cc23)[C@@H](C)C1 | 30.1 µM | > 86 µM | 16900 nM | 38.1 µM | 15100 | 36.3 µM | 39900 nM | > 100 µM | 17300 nM | 70.3 µM | < 0.0291 µM | > 66.5 µM | 35.8 µM | > 100 µM | 23.8 µM | > 90.9 µM | 40.9 | > 100 | 18700 nM | 71 µM
COc1cc(C)c(Cl)cc1C1=NN(c2ccc(S(N)(=O)=O)cc2)C(/C=C/c2ccccc2)C1 (stereo unspecified) | 2.61 µM | 6.46 µM | 1670 nM | 3.21 µM | 1900 | 4.72 µM | 1760 nM | 3.33 µM | 3060 nM | 8.91 µM | 3.1 µM | 11.8 µM | 2.77 µM | 24.9 µM | 3.25 µM | 11.5 µM | 3.34 | 16 | 3370 nM | 64.4 µM
Nc1ncnc2c1nc(Cl)n2C1OC2COP(=O)(O)OC2C1O (stereo unspecified) | – | > 300 µM | – | > 300 µM | – | > 300 µM | – | > 300 µM | – | > 300 µM | – | 163 µM and > 100 µM | – | 204 µM and > 100 µM | – | > 222 µM | – | > 300 | – | –
N[C@@H]1CCCC[C@H]1N.O=C([O-])C(=O)[O-].[Pt+4] | 5.71 µM | 25.9 µM | 1130 nM | > 100 µM | 378 | > 100 µM | 7730 nM | > 74.8 µM | – | – | 46.2 µM | > 100 µM | 4.09 µM | 83.8 µM | 21.2 µM | 74 µM | 2.21 | > 100 | 137 nM | 15.6 µM
C=C1C(=O)O[C@H]2[C@H]1CC/C(Cn1cc(-c3cc(C(F)(F)F)cc(C(F)(F)F)c3)nn1)=C\CC[C@@]1(C)O[C@@H]21 | 0.152 µM | 0.358 µM | 156 nM | 0.298 µM | 153 | 0.312 µM | 141 nM | 0.364 µM | 103 nM | 0.444 µM | 1.56 µM | 3.31 µM | 0.508 µM | 1.8 µM | – | – | 0.33 | 1.62 | 191 nM | 0.603 µM
NC(N)=N/N=C\c1cccc(OCc2ccccc2)c1 | 6.51 µM | 23 µM | 1780 nM | 3.4 µM | 1840 | 3.96 µM | 1780 nM | 3.36 µM | – | – | 5.16 µM | 19.1 µM | 5.93 µM | 27 µM | 12.6 µM | 39.1 µM | 1.55 | 3.99 | 11100 nM | 27.8 µM
COc1cc2c3c(n(CCCN)c(=O)c2cc1OC)-c1cc2c(cc1/C3=C\CCN)OCO2 | – | > 23.5 µM | 1700 nM | – | 989 | – | 4340 nM | 33.5 µM | 166 nM | > 100 µM | 5.95 µM | 36.7 µM | – | – | 4.92 µM | > 28 µM | 19.4 | > 100 | 60.1 nM | –
O=c1nc2n(-c3ccc(Cl)cc3)c3ccc([N+](=O)[O-])cc3cc-2c(=O)[nH]1 | 5.57 µM | 21.6 µM | 4870 nM | 21.7 µM | 16100 | 33.2 µM | 13200 nM | 31.8 µM | – | – | 6.01 µM | 22.8 µM | 71.5 µM | > 100 µM | 25.7 µM | 62.7 µM | 18.3 | 43.1 | 13400 nM | > 100 µM
